Measurements from patent publication US10125116B2, “Compounds and methods for treating mammalian gastrointestinal microbial infections” (Brandeis University, priority 2009, dated 2018).
pEC50: −log10 of the molar value. Where two headings read alike, the source gives them in different places.

Key:
[1] = target: T1, recombinant C. parvum IMPDH (Cryptosporidium parvum, UniProt Q8T6T2); assay: C. parvum IMPDH inhibition (NADH production); format: biochemical
T1 construct: made in house; host or cells: bacteria (guaB strains of E. coli)
T1 sequence (Q8T6T2 1-400): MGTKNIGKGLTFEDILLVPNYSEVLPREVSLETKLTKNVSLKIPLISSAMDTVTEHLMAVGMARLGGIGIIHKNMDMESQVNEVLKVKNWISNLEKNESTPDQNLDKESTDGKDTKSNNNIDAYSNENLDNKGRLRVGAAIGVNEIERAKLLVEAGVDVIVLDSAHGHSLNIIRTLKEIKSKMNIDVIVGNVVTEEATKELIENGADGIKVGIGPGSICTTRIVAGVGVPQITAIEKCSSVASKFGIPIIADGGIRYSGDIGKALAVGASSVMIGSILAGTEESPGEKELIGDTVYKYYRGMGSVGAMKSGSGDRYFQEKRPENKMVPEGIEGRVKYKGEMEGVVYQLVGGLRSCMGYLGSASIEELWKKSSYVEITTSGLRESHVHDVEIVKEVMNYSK
Description: Recombinant C. parvum IMPDH was expressed in bacteria and purified as described previously [N. N. Umejiego et al., J Biol Chem 279, 40320-40327 (2004)].
Inhibitors at varying concentrations (25 pM-5 μM) were incubated with 10 nM C. parvum in assay buffer for 10 min at room temperature. The reaction was initiated by the addition of NAD and IMP for final concentrations of 300 μM and 150 μM, respectively. Selectivity was measured against human type II and T. foetus IMPDH at 25° C. in assay buffer. The former was assayed in the presence of 300 μM NAD 40 μM IMP and 160 nM human type II IMPDH, and the latter in the presence of 300 μM NAD 20 μM IMP and 28 nM T. foetus IMPDH. The production of NADH was monitored spectrophotometrically at 340 nm (=6.22 mM^−1 cm^−1) using a Hitachi U-2000 spectrophotometer.
IC50 values were calculated for each inhibitor according to the following equation: υi=υo/(1+[I]/IC50), using the SigmaPlot program (SPSS, Inc.).
The CpIMPDH inhibitory activity of the compounds was assessed by monitoring the production of NADH by fluorescence (FIG. 55). […]
Evaluation of Cp-IMPDH inhibitory activity for the various prepared compounds was conducted utilizing an assay measuring the conversion of IMP to XMP by monitoring the production of NADH by fluorescence emission in the presence of varying inhibitor concentrations. […]

T. gondii-CpIMPDH = T. gondii-CpIMPDH fluorescence growth assay; format: cell-based, Toxoplasma gondii
C. parvum [2] = assay: high content imaging C. parvum growth assay; format: cell-based, Cryptosporidium parvum
Excerpt: FIG. 58 depicts an overview and validation of the high content imaging C. parvum growth assay. A, schematic representation of differential labelling of parasite and host. B, detail of an exemplary micrograph obtained through the screening routine. Numbers indicate object identifies after segmentation analysis. […] For panel D, the ratio of the number of FITC-VVL labelled C. parvum parasites to DAPI labelled HCT-8 host cell nuclei was used to standardize each well and percent C. parvum growth (solid line) was normalized to parasites receiving DMSO alone. […] Paromomycin in addition to reducing parasite number also reduces the average size of the parasite (dashed line). The mean parasite area was measured per well for each treatment in triplicate. The percent area was then calculated by normalizing to the mean area of parasites receiving DMSO alone.
A direct and efficient assay of Cryptosporidium proliferation was also needed. Fluorescent Vicia villosa lectin (VVL) has been used previously to score C. parvum growth by fluorescence microscopy. VVL binds with high specificity to the C. parvum parasite, labelling sporozoites, intracellular stages, the inner oocyst wall, but not the outer oocyst wall. To accommodate the increasing number of compounds entering the SAR pipeline, we adapted the FITC-VVL immunofluorescence assay to a 96-well plate format and developed an automated imaging and analysis pipeline. […] Plates are fixed, permeabilized and stained with FITC-VVL and DAPI to numerate parasites and host cells, respectively. Using a spinning disc microscope, we imaged a […] of each well, providing a robust sample typically consisting of ˜6000 host cells and ˜2000 parasite stages. The instrument is programmed to automatically move from well to well, focus and acquire […] deep image stacks for the entire plate. A series of automated image compression, manipulation, and object-finding algorithms was optimized for the recognition of host cells and parasites using the DAPI and FITC channels. […]

HCT-8 cells = assay: fluorescent HCT-8 host cell growth assay; format: cell-based, human
Excerpt: The differentiation of selective antiparasitic effects from those that are a secondary consequence of a host cell effect is a critical issue in drug discovery for intracellular parasites. Cytotoxicity assays commonly reflect plasma membrane integrity, and are a crude measure of host cell effects—it is conceivable that more subtle perturbations of host cell metabolism can have an adverse effect on parasite proliferation. Therefore we sought to develop a simple and inexpensive assay of host cell growth. The human ileocecal adenocarcinoma epithelial cell line, HCT-8, which is commonly used to maintain C. parvum infection in tissue culture, was engineered to constitutively express a green fluorescent protein (GFP). Growth of this cell line was monitored daily using a fluorescent plate reader. […] These experiments validate the use of the fluorescent HCT-8 cell growth assay.
HCT-8 cells were transfected with the pmaxGFP plasmid (Amaxa) using Lipofectamine (Invitrogen) following the manufactures instruction. Fluorescent lines were then selected and cloned using FACS. Confluent monolayers of pmaxGFP expressing cells were harvested from T75 flasks and passed through a 40 μm cell strainer. Cells were then seeded at 4000 cells per well in a volume of 200 μL into black, optical quality, thin bottom, 96-well plates (DB Falcon). All test compounds were diluted in DMSO to prepare a 200× working stock for each dilution. Appropriate wells were spiked with 1 μl such that the final concentration of DMSO was 0.5%. The fluorescence was read daily with a SpectraMax M22/M2e (Molecular Devices) plate reader (Ex 485, Em 530) for 6-7 days. The percent inhibition was calculated on a day within the exponential phase of growth.

C. parvum [3] = conditions: read-out: reported EC50 C. parvum growth (previous studies); cited from earlier work

SMILES | CpIMPDH inhibition, result in words [1] | selective block of T. gondii-CpIMPDH growth, in words (T. gondii-CpIMPDH) | mean parasite area, in words (C. parvum [2]) | pEC50 (C. parvum [2]; Cryptosporidium parvum, in HCT-8 host cells) | reduction in parasite number (C. parvum [2]; very high concentrations) [%] | host cell (HCT-8) growth effect, in words (HCT-8 cells) | pEC50 (C. parvum [3])
O=C(Nc1ccc(Cl)cc1)C(Oc1cccc2ccccc12)c1ccccc1 (stereo not shown) [A66] | do not inhibit CpIMPDH in vitro | none of these compounds selectively blocked the growth |  |  |  |  | 
NC[C@@H]1O[C@H](O[C@H]2[C@@H](O)[C@H](O[C@@H]3[C@@H](O)[C@H](N)C[C@H](N)[C@H]3O[C@H]3O[C@H](CO)[C@@H](O)[C@H](O)[C@H]3N)O[C@@H]2CO)[C@H](N)[C@@H](O)[C@@H]1O [paromomycin] |  |  | significantly reduce the mean parasite area in a dose responsive manner | 4.01 | ~70 | negligible effects on the growth of these cells | 3.89 to 4.19
